In patent EP3339292A1, “COCRYSTALS OF APREMILAST” (Zaklady Farmaceutyczne Polpharma SA, priority 2016, dated 2018):

Legend:
Type in all cases: physicochemical
[1] = Moisture sorption analysis (Dynamic Vapour Sorption, DVS); settings: result in words
Experimental: Water Vapour Sorption isotherms were obtained using a Dynamic Vapour Sorption apparatus (model: DVS - Advantage, supplier: Surface Measurement Systems Limited). The DVS apparatus consists of an ultra-microbalance housed inside a temperature-controlled cabinet. The sample was placed into a DVS sample pan under a stream of nitrogen (200 sccm) at 25°C. The humidity was increased ramping in 10% RH (relative humidity) steps from close to 0% RH to 90% RH (sorption phase). Next the humidity was decreased in a similar fashion for the desorption phase. The sample was held at each RH step for mass stabilization (dm/dt 0.02 %/min) but not less than 10 minutes. Two cycles of sorption and desorption were investigated.

Solubility of cocrystal = settings: RT
[2] = Dissolution studies (Ph. Eur. paddle method, tablets, HPLC analysis); settings: buffer pH 6.8 + 0.3% SLS, result in words
Experimental: Dissolution studies were performed using a Hanson SR8PLUS dissolution apparatus, according to European Pharmacopoeia apparatus, paddle method. The samples were tested in 900mL pH 6.8 with 0.3% SLS at 37.0°C +/- 0.5°C and the paddle rotation speed was set at 75 rpm. Dissolution study was conducted for 60min and samples were analyzed using HPLC method.
• Injection Volume: 0.5, 0.2 µl; • Run Time: 15.0 minutes; • Column: Symmetry C18; 250x4,6mm; 5µm, Vial: 1:A,1, 1:c,7, 1:c,8; • Mobile phase: gradient: acetonitrile : buffer (1 vol. TEA and 150 vol. 2,7g/l KH2PO4, pH2,0 adjust with H3PO4); • Column temp: 25°C; and • Flow: 1 ml/min.

| Structure (SMILES) | hygroscopicity [1] | Solubility (Solubility of cocrystal) | dissolution profile compared to prior art Form B of Apremilast ([2]; listed as cocrystal of Apremilast with 4-hydroxybenzoic acid) | dissolution profile compared to prior art Form B of Apremilast ([2]; listed as cocrystals of Apremilast with 4-hydroxybenzoic acid) | dissolution profile compared to prior art Form B of Apremilast [2] |
| --- | --- | --- | --- | --- | --- |
| CCOc1cc([C@@H](CS(C)(=O)=O)N2C(=O)c3cccc(NC(C)=O)c3C2=O)ccc1OC.O=C(O)c1ccc(O)cc1 [APM-4HB, Cocrystal of N-[2-[(1S)-1-(3-ethoxy-4-methoxyphenyl)-2-(methylsulfonyl)ethyl]-1,3-dioxo-2,3-dihydro-1H-isoindol-4-yl]acetamide and 4-hydroxybenzoic acid] | slightly hygroscopic | Solubility: 42.5µg/ml (RT) | higher dissolution rate | superior dissolution profile |  |
| CCOc1cc([C@@H](CS(C)(=O)=O)N2C(=O)c3cccc(NC(C)=O)c3C2=O)ccc1OC.Cn1c(=O)c2c(ncn2C)n(C)c1=O [APM-CAF, Cocrystal of N-[2-[(1 S)-1-(3-ethoxy-4-methoxyphenyl)-2-(methylsulfonyl)ethyl]-1,3-dioxo-2,3-dihydro-1H-isoindol-4-yl]acetamide and 1,3,7-trimethylpurine-2,6-dione (caffeine)] | slightly hygroscopic |  |  |  | higher dissolution rate |
